The results in this text go back to patent US20240384268A1, “Oligonucleotides” (Hudson Institute of Medical Research, priority 2021, published 2024).

In the oligonucleotide strings, read from the 5' end, every base follows the letter of its sugar. An asterisk marks phosphorothioate; unmarked linkages are phosphodiester. Other units and linkages are bracketed, terminal groups are in braces. A string of capitals states the bases alone. d = 2'-deoxy (DNA); m = 2'-O-methyl

This data set concerns the target cGAS (Homo sapiens, UniProt Q8N884). As to the kind of experiment: ISD70-driven IP-10 (and IFN-β) production in THP-1 cells, ELISA. The arrangement: endogenous in cells; host or cells: THP-1 (undifferentiated). In kind it is cell-based. The following applies: for cGAS-100 nM: averaged IP-10 levels relative to ISD70: 100 nM ASO overnight, then ISD70 2.5 μg/ml 7-8 h, percentage of ISD70 only; for cGAS 100 nM: MOE-modified ASO at 100 nM, averaged IP-10 levels relative to ISD70 condition. (In general: An ELISA detects its analyte on a solid surface through an enzyme-linked reagent.)

Chain of cGAS (Q8N884 whole entry): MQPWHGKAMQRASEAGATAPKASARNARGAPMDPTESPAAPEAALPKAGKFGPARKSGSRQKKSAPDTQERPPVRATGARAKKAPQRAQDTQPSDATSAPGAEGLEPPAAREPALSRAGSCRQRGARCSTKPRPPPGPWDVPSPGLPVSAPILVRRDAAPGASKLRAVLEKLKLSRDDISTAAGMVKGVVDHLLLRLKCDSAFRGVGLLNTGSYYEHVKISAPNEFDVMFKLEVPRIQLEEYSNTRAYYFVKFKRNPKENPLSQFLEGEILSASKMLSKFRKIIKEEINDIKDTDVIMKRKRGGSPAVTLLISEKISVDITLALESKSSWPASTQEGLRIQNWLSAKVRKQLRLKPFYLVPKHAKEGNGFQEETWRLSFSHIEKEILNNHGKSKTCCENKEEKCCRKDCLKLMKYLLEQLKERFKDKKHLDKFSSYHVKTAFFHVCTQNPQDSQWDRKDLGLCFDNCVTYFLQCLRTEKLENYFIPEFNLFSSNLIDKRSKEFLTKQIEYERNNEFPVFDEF

As for “mA*mG*mC*mC*mG*A*A*C*A*G*A*A*G*G*A*mG*mC*mG*mU*mC (AGCCGAACAGAAGGAGCGUC; sugars from the 5' end m5 d10 m5, all phosphorothioate, methylation of C not given here) [[LINC-PINT]587 KL]”, the “cGAS-100 nM: averaged IP-10 levels relative to ISD70” value (THP-1) stood at 39.92%.
As to “mA*mA*mU*mU*mU*A*A*A*G*C*A*T*G*A*A*mU*mA*mU*mU*mA (mA*mA*mU*mU*mU*dA*dA*dA*dG*dC*dA*dT*dG*dA*dA*mU*mA*mU*mU*mA) [[CDKN2B-AS1]645]”, the “cGAS-100 nM: averaged IP-10 levels relative to ISD70” value (THP-1) amounted to 67.63%.
With “mG*mA*mU*mU*mA*A*A*A*C*A*G*A*T*T*A*mA*mU*mA*mC*mA (mG*mA*mU*mU*mA*dA*dA*dA*dC*dA*dG*dA*dT*dT*dA*mA*mU*mA*mC*mA) [[CDKN2B-AS1]1773]”, under “THP-1”, the “cGAS-100 nM: averaged IP-10 levels relative to ISD70” value came out at 89.36%.
With “mU*mG*mA*mC*mA*T*T*T*C*G*T*G*G*C*T*mC*mC*mU*mA*mC (mU*mG*mA*mC*mA*dT*dT*dT*dC*dG*dT*dG*dG*dC*dT*mC*mC*mU*mA*mC; antisense) [[LINC-PINT]523 KL]”, the “cGAS-100 nM: averaged IP-10 levels relative to ISD70” value (THP-1) was 39.34%.
“TCCGGCCTCGGAAGCTCTCT (antisense; 2'-MOE modified, pattern not given here) [MB21D1-168 MOE]”: the “cGAS 100 nM” value is 0.250.
Consider “mC*mC*mU*mA*mG*A*A*A*G*A*A*G*C*A*A*mA*mG*mA*mU*mU (mC*mC*mU*mA*mG*dA*dA*dA*dG*dA*dA*dG*dC*dA*dA*mA*mG*mA*mU*mU) [[CDKN2B-AS1]1522]”, for which the “cGAS-100 nM: averaged IP-10 levels relative to ISD70” value (THP-1) was found to be 60.90%.
For “mA*mA*mU*mA*mU*C*T*G*C*T*G*C*C*C*A*mC*mC*mU*mU*mC (mA*mA*mU*mA*mU*dC*dT*dG*dC*dT*dG*dC*dC*dC*dA*mC*mC*mU*mU*mC; antisense) [[CDKN2B-AS1]832]”, the “cGAS-100 nM: averaged IP-10 levels relative to ISD70” value (THP-1) was 83.17%.
Turning to “ATGCCATCCACTTGATAGGC (antisense; 2'-MOE modified, pattern not given here) [EGFR-2874 MOE]”, the “cGAS 100 nM” value worked out at 0.639.
For “mG*mA*mU*mG*mG*T*T*C*C*A*G*T*C*C*C*mU*mC*mU*mU*mC (GAUGGTTCCAGTCCCUCUUC; antisense; sugars from the 5' end m5 d10 m5, all phosphorothioate, methylation of C not given here) [[LINC-PINT]1497.1]”, the “cGAS-100 nM: averaged IP-10 levels relative to ISD70” value (THP-1) is reported as 26.05%. In addition, for the setting “THP-1, 2′OMe or PS oligos, 100-250 nM, pre-treatment as in figure legends, ISD70 2.5 μg/ml”, the “inhibition of ISD70-driven IP-10 production (in words)” value is reported as “significant effect”.
As to “mU*mU*mG*mG*mC*C*T*G*T*G*G*A*T*G*C*mU*mU*mU*mG*mU (mU*mU*mG*mG*mC*dC*dT*dG*dT*dG*dG*dA*dT*dG*dC*mU*mU*mU*mG*mU) [[LINC-PINT]2673.1]”, the “cGAS-100 nM: averaged IP-10 levels relative to ISD70” value (THP-1) is given as 68.35%.
Take “GCTGACAAAGATTCACTGGT (antisense; 2'-MOE modified, pattern not given here) [HPRT-1353 MOE]”: the “cGAS 100 nM” value stood at 0.335.
Take “mU*mG*mU*mU*mU*C*C*C*C*G*G*A*G*A*G*mC*mA*mA*mU*mG (UGUUUCCCCGGAGAGCAAUG; antisense; sugars from the 5' end m5 d10 m5, all phosphorothioate, methylation of C not given here) [[LINC-PINT]501 KL]”: the “cGAS-100 nM: averaged IP-10 levels relative to ISD70” value (THP-1) worked out at 57.81%.
The same measure, in the same setting: for “mU*mC*mU*mC*mU*C*T*G*G*T*C*C*C*A*T*mC*mC*mC*mU*mU (mU*mC*mU*mC*mU*dC*dT*dG*dG*dT*dC*dC*dC*dA*dT*mC*mC*mC*mU*mU; antisense) [[LINC-PINT]110]” the value was 92.39%; for “mU*mC*mC*mC*mA*A*C*T*C*T*T*C*T*A*A*mC*mU*mC*mG*mU (mU*mC*mC*mC*mA*dA*dC*dT*dC*dT*dT*dC*dT*dA*dA*mC*mU*mC*mG*mU; antisense) [[LINC-PINT]1284 KL]”, 99.64%.
For “GCCCATCCATGAGGTCCTGG (antisense; 2'-MOE modified, pattern not given here) [CTNN2B-2545 MOE]”, the “cGAS 100 nM” value stood at 0.592.
For “mC*mA*mU*mC*mC*C*T*T*C*T*G*C*T*G*C*mC*mA*mA*mG*mC (mC*mA*mU*mC*mC*dC*dT*dT*dC*dT*dG*dC*dT*dG*dC*mC*mA*mA*mG*mC; antisense) [[LINC-PINT]98]”, the “cGAS-100 nM: averaged IP-10 levels relative to ISD70” value (THP-1) is reported as 70.60%.
For “mC*mC*mU*mU*mC*T*C*T*C*T*G*GT*C*C*mC*mA*mU*mC*mC (CCUUCTCTCTGGTCCCAUCC; antisense; chemistry not fully specified) [[LINC-PINT]113]”, for the setting “THP-1”, the “cGAS-100 nM: averaged IP-10 levels relative to ISD70” value is 103.79%.
As for “mG*mU*mC*mC*mC*A*G*G*C*C*T*C*C*A*G*mU*mG*mU*mC*mU (mG*mU*mC*mC*mC*dA*dG*dG*dC*dC*dT*dC*dC*dA*dG*mU*mG*mU*mC*mU; antisense) [[CDKN2B-AS1]2223]”, where the note is “THP-1”, the “cGAS-100 nM: averaged IP-10 levels relative to ISD70” value turned out to be 74.22%.
